Tests used:
[1] = tested on: Phakopsora pachyrhizi (F129L); assay: Protective control of soybean rust on soybeans (PHAKPA P2); format: in vivo; details: for % PHAKPA (F129L) Disease level P2 at 4 ppm: protective P2, 4 ppm; for % PHAKPA (F129L) Disease level P2 at 4 ppm / % PHAKPA (F129L) Disease level P2 at 16 ppm: soybean rust F129L; for % PHAKPA (F129L) Disease level P2 at 16 ppm: protective P2, 16 ppm; for PHAKPA (F129L) Disease level (%) P2 at 16 ppm / PHAKPA (F129L) Disease level (%) P2 at 4 ppm: P2 protective, % diseased leaf area
[2] = tested on: Phakopsora pachyrhizi (F129L); assay: Protective control of soybean rust on soybeans (PHAKPA P6); format: in vivo; details: for % PHAKPA (F129L) Disease level P6 at 4 ppm: protective P6, 4 ppm; for % PHAKPA (F129L) Disease level P6 at 4 ppm / % PHAKPA (F129L) Disease level P6 at 16 ppm: soybean rust F129L; for % PHAKPA (F129L) Disease level P6 at 16 ppm: protective P6, 16 ppm
[3] = P6 protective, % diseased leaf area

Row | SMILES | % PHAKPA (F129L) Disease level P2 at 4 ppm [1] [%] | % PHAKPA (F129L) Disease level P2 at 16 ppm [1] [%] | % PHAKPA (F129L) Disease level P6 at 4 ppm [2] [%] | % PHAKPA (F129L) Disease level P6 at 16 ppm [2] [%] | PHAKPA (F129L) Disease level (%) P2 at 16 ppm [1] [%] | PHAKPA (F129L) Disease level (%) P6 at 16 ppm [2, 3] [%] | PHAKPA (F129L) Disease level (%) P2 at 4 ppm [1] [%] | PHAKPA (F129L) Disease level (%) P6 at 4 ppm ([2]; P6 protective, 4 ppm, % diseased leaf area) [%]
1 | CO/N=C(/C(=O)OC)c1cccc(C)c1CO/N=C(\C)c1cc(F)cc(F)c1 [compound 87] | 8 | 0 | 7 | 0 |  |  |  | 
2 | CO/N=C(/C(=O)OC)c1cccc(C)c1CO/N=C(\C)c1ccc(Br)cc1C(F)(F)F [compound 257] | 93 | 35 | 100 | 57 |  |  |  | 
3 | C#Cc1cc(F)cc(/C(C)=N/OCc2c(C)cccc2/C(=N\OC)C(=O)NC)c1 [compound 55] | 3 | 1 | 13 | 5 |  |  |  | 
4 | COC=C(C(=O)OC)c1cccc(C)c1CON=C(C)c1ccccc1C(F)(F)F [Ex. 244] | 14 | 0 | 15 | 2 | 0 | 2 |  | 
5 | CO/N=C(/C(=O)OC)c1cccc(C)c1CO/N=C(\C)c1ccc(C)c(C)c1 [compound 137] | 19 | 2 | 50 | 5 |  |  |  | 
6 | CNC(=O)/C(=N/OC)c1cccc(C)c1CO/N=C(/c1cccc(C)c1)C1CC1 [drawing 975, reference compound] |  |  |  |  |  | 67 | 67 | 
7 | CO/N=C(/C(=O)OC)c1cccc(C)c1CO/N=C(\C)c1ccc(Oc2ccc(Cl)cc2)cc1C(F)(F)F [compound 335] | 77 | 53 | 80 | 25 |  |  |  | 
8 | C#Cc1ccccc1/C(C)=N/OCc1c(C)cccc1/C(=N\OC)C(=O)NC [compound 125] | 72 | 9 | 90 | 44 |  |  |  | 
9 | CO/N=C(/C(=O)OC)c1ccccc1CO/N=C(\C)c1cccc(C(F)(F)F)c1 [Trifloxystrobin, trifloxystrobin, reference compound] |  |  |  |  | 17 | 33 | 71 | 79
10 | CO/N=C(/C(=O)OC)c1cccc(C)c1CO/N=C(\C)c1ccc(F)c(F)c1OC(F)(F)F [compound 447] | 7 | 0 | 33 | 1 |  |  |  | 
11 | CNC(=O)/C(=N/OC)c1cccc(C)c1CO/N=C(/c1ccc(F)cc1)C(F)F [Ex. 27] | 5 | 0 | 32 | 0 | 0 | 0 |  | 
12 | CO/N=C(/C(=O)OC)c1cccc(C)c1CO/N=C(\C)c1c(F)ccc(C(F)(F)F)c1F [compound 156] | 27 | 0 | 47 | 3 |  |  |  | 
13 | CO/N=C(/C(=O)OC)c1cccc(C)c1CO/N=C(\C)c1cc(C(F)(F)F)ccc1Cl [compound 200] | 93 | 73 | 100 | 77 |  |  |  | 
14 | CNC(=O)/C(=N/OC)c1cccc(C)c1CO/N=C(\C)c1cc(F)cc(C(F)(F)F)c1 [compound 50] | 2 | 1 | 6 | 0 |  |  |  | 
15 | CO/N=C(/C(=O)OC)c1cccc(C2CC2)c1CO/N=C(\C)c1cccc(C(F)(F)F)c1 [Ex. 10] | 22 | 2 | 45 | 3 |  |  |  | 
16 | C#Cc1cc(F)ccc1/C(C)=N/OCc1c(C)cccc1/C(=N\OC)C(=O)NC [compound 286] | 67 | 15 | 97 | 27 |  |  |  | 
17 | CO/N=C(/C(=O)OC)c1cccc(C)c1CO/N=C(\C)c1cc(C2CC2)cc(C(F)(F)F)c1 [compound 145] | 28 | 8 | 37 | 16 |  |  |  | 
18 | C=Cc1ccccc1/C(C)=N/OCc1c(C)cccc1/C(=N\OC)C(=O)NC [compound 211] | 100 | 43 | 100 | 77 |  |  |  | 
19 | CNC(=O)/C(=N/OC)c1cccc(C)c1CO/N=C(\C)c1ccc(OC(F)(F)F)cc1F [compound 270] | 3 | 0 | 0 | 1 |  |  |  | 
20 | CNC(=O)/C(=N/OC)c1cccc(C)c1CO/N=C(\C)c1ccc(Cl)cc1OC(F)(F)F [compound 375] | 47 | 8 | 40 | 6 |  |  |  | 
21 | CO/N=C(/C(=O)OC)c1cccc(C)c1CO/N=C(\C)c1cc(C)ccc1C [compound 203] | 87 | 32 | 93 | 32 |  |  |  | 
22 | CO/N=C(/C(=O)OC)c1cccc(C)c1CO/N=C(\C)c1ccc(Cl)c(C(F)(F)F)c1 [compound 59] | 67 | 20 | 63 | 11 |  |  |  | 
23 | CO/N=C(/C(=O)OC)c1cccc(Br)c1CO/N=C(\C)c1ccccc1 [compound 395] | 43 | 4 | 67 | 18 |  |  |  | 
24 | CNC(=O)/C(=N/OC)c1cccc(C)c1CO/N=C(\C)c1cccc(Cl)c1C(F)(F)F [compound 422] | 30 | 0 | 32 | 2 |  |  |  | 
25 | CNC(=O)/C(=N/OC)c1cccc(C)c1CO/N=C(\C)c1cccc(C2CC2)c1 [compound 299] | 53 | 13 | 53 | 22 |  |  |  | 
26 | C#Cc1cc(C#C)cc(/C(C)=N/OCc2c(C)cccc2/C(=N\OC)C(=O)NC)c1 [compound 193] | 15 | 0 | 14 | 0 |  |  |  | 
27 | CO/N=C(/C(=O)OC)c1cccc(C)c1CO/N=C(\C)c1ccc(F)cc1 [compound 103] | 40 | 3 | 35 | 4 |  |  |  | 
28 | CNC(=O)/C(=N/OC)c1cccc(C)c1CO/N=C(\C)c1cccc(Br)c1F [compound 141] | 2 | 0 | 2 | 0 |  |  |  | 
29 | C=Cc1cc(/C(C)=N/OCc2c(C)cccc2/C(=N\OC)C(=O)OC)cc(C(F)(F)F)c1 [compound 147] | 73 | 18 | 95 | 18 |  |  |  | 

From patent US20230172204A1 (BASF SE, priority 2020, published 2023)
